Assays:
Format in all cases: cell-based
Hela = assay: Antiproliferative activity (MTS assay), Hela; conditions: Homo sapiens, HeLa, 96 h, Hela cells
Description: (§1) Antiproliferative effect is expressed as IC50 values in microMolar final concentration.
(§2) Cells were grown at 37° C. in a humidified atmosphere with 5% CO2 and 95% air. Cells were seeded in 96 well tissue culture plates.
(§3) Compound treatment started after overnight incubation of cells (TO). […] Compound was added to the plate in triplicate wells, and the plates were then incubated for 96 hours. DMSO (compounds diluents) was also included and added to the plate in control wells. Cell viability was then determined by MTS assay using CellTiter 96® AQueous non-radioactive cell proliferation assay system (Promega). A plate reader (Molecular Devices, Vmax) was used to read the optical densities, and the results were used to deduce concentration-response curves. […] The results were analyzed using linear regression software (GraphPad Prism 5; GraphPad Software Inc.).
(§4) The GI50 values (growth inhibitory activity) were determined to emphasize on the correction for the cell count at time zero; thus, the % inhibition of test drug were: [1−(T−T0)/(C−T0)]×100; and these value were used to plot the concentration-response curves, and then analyzed with linear regression software (GraphPad Prism 5).

K562 = assay: Antiproliferative activity (MTS assay), K562; conditions: Homo sapiens, K562, 96 h, K562 cells
Description: as §1, §2, §3, §4

MDA-MB-231 = assay: Antiproliferative activity (MTS assay), MDA-MB-231; conditions: Homo sapiens, MDA-MB-231, 96 h, MDA-MB-231 cells
Description: as §1, §2, §3, §4

MDA-MB-468 = assay: Antiproliferative activity (MTS assay), MDA-MB-468; conditions: Homo sapiens, MDA-MB-468, 96 h, MDA-MB-468 cells
Description: as §1, §2, §3, §4

Row | SMILES | IC50 (Hela) | IC50 (K562) | IC50 (MDA-MB-231) | IC50 (MDA-MB-468)
1 | COCCOc1cc(C)c(-c2csc(NC(=O)c3ccncc3)n2)c(C)c1 [Compound 109] | 310 nM | 240 nM | 260 nM | 280 nM
2 | COc1ccc(Oc2cc(C)c(-c3csc(NC(=O)c4cc[n+]([O-])cc4)n3)c(C)c2)cc1 [Compound 120] | 160 nM | 180 nM | 220 nM | 250 nM
3 | COc1ccc(S(=O)(=O)c2cc(C)c(-c3csc(NC(=O)c4ccncc4)n3)c(C)c2)cc1 [Compound 129] | 270 nM | 190 nM | 200 nM | 270 nM
4 | Cc1ccc(-c2csc(NC(=O)c3ccc(C#N)cc3)n2)cc1 [Compound 7] | > 10000 nM | > 10000 nM | > 10000 nM | > 10000 nM
5 | Cc1cc(C)c(-c2csc(NC(=O)c3ccncn3)n2)c(C)c1 [Compound 5] | > 10000 nM | 5740 nM | 7370 nM | 4570 nM
6 | O=C(Nc1nc(-c2ccc(O)cc2)cs1)c1ccccn1 [Compound 59] | > 10000 nM | > 10000 nM | > 10000 nM | > 10000 nM
7 | Cc1cc(Sc2ccccc2)cc(C)c1-c1csc(NC(=O)c2ccncc2)n1 [Compound 115] | 230 nM | 140 nM | 170 nM | 220 nM
8 | COc1cc(-c2csc(NC(=O)c3ccccn3)n2)cc(OC)c1OC [Compound 25] | > 10000 nM | > 10000 nM | > 10000 nM | > 10000 nM
9 | O=C(Nc1nc(-c2ccc(O)cc2)cs1)c1ccncn1 [Compound 58] | > 10000 nM | > 10000 nM | > 10000 nM | > 10000 nM
10 | Cc1cc(C)c(-c2csc(NC(=O)/C=C/c3cccnc3)n2)c(C)c1 [Compound 103] | > 10000 nM | 2480 nM | 1110 nM | 2170 nM
11 | Cc1cc(C)c(-c2csc(NC(=O)c3ccnc(N4CCOCC4)c3)n2)c(C)c1 [Compound 83] | 2370 nM | 2230 nM | 3510 nM | 4170 nM
12 | COc1cc(-c2csc(NC(=O)c3ccncc3)n2)ccc1O [Compound 34] | > 10000 nM | > 10000 nM | > 10000 nM | > 10000 nM
13 | COc1cc(C)c(-c2csc(NC(=O)c3cc[n+]([O-])cc3)n2)c(C)c1 [Compound 72] | 2700 nM | 5400 nM | 4280 nM | 4810 nM
14 | COc1cc(-c2csc(NC(=O)c3ccsc3)n2)ccc1O [Compound 49] | > 10000 nM | > 10000 nM | > 10000 nM | > 10000 nM
15 | COc1ccc(-c2csc(NC(=O)c3ccccn3)n2)c(F)c1 [Compound 24] | > 10000 nM | > 10000 nM | > 10000 nM | > 10000 nM
16 | COc1cc(C)c(-c2csc(NC(=O)c3cncs3)n2)c(C)c1 [Compound 75] | 2930 nM | 3700 nM | 2370 nM | 4340 nM
17 | Cc1cc(C)c(-c2csc(NC(=O)c3ccnnc3)n2)c(C)c1 [Compound 8] | 8750 nM | 5600 nM | 3120 nM | 6180 nM
18 | COc1ccc(Oc2cc(C)c(-c3csc(NC(=O)c4ccnc(F)c4)n3)c(C)c2)cc1 [Compound 98] | 40 nM | 20 nM | 20 nM | 40 nM
19 | CSc1cc(C)c(-c2csc(NC(=O)c3ccncc3)n2)c(C)c1 [Compound 125] | 270 nM | 180 nM | 160 nM | 250 nM
20 | Cc1ccc(-c2nc(NC(=O)c3cccnc3)sc2C)cc1 [Compound 31] | > 10000 nM | > 10000 nM | > 10000 nM | > 10000 nM
21 | Cc1cc(C)c(-c2csc(NC(=O)c3ccnc(N4CCCCC4)c3)n2)c(C)c1 [Compound 91] | > 10000 nM | 1400 nM | 6060 nM | 4660 nM
22 | Cc1cc(Oc2ccc3c(c2)OCO3)cc(C)c1-c1csc(NC(=O)c2ccncc2)n1 [Compound 101] | 110 nM | 50 nM | 70 nM | 130 nM
23 | CCOc1cc(C)c(-c2csc(NC(=O)c3ccnc(Cl)c3)n2)c(C)c1 [Compound 66] | 200 nM | 210 nM | 110 nM | 240 nM
24 | O=C(Nc1nc(-c2ccc(O)cc2)cs1)c1cccnc1 [Compound 60] | > 10000 nM | > 10000 nM | > 10000 nM | > 10000 nM
25 | Cc1cc(C)c(-c2csc(NC(=O)Cc3ccncc3)n2)c(C)c1 [Compound 93] | 620 nM | 380 nM | 310 nM | 300 nM
